In paper PMC10819771 (Pharmaceuticals, 2023):
Like-named read-outs stand apart in the source and are kept apart here.

Legend:
MCF-7 = assay: MTT antiproliferative assay, MCF-7; format: cell-based, human; settings: MTT, 72 h, breast cancer cells, read-out: IC50 Values (μM) ± SEM MCF-7
Procedure: (§1) The growth-inhibitory effects of the compounds were determined by MTT (3-(4,5-dimethylthiazol-2-yl)-2,5-diphenyltetrazolium bromide) assay on selected cell lines, including HeLa and SiHa (cervical cancers), MDA-MB-231 and MCF-7 (breast cancers), and A2780 ovarian cancer cells. All cell lines were purchased from the European Collection of Cell Cultures (Salisbury, UK) except SiHa, which was obtained from the American Tissue Culture Collection (Manassas, VA, USA). The cells were kept in minimum essential medium supplemented with 10% fetal bovine serum, 1% non-essential amino acids, and 1% penicillin-streptomycin-amphotericin-B at 37 °C in a humidified atmosphere containing 5% CO2. Media and supplements were obtained from Lonza Group Ltd., (Basel, Switzerland). Cancer cells were seeded onto 96-well plates (5000 cells/well), after an overnight incubation the test compounds were added in six concentrations (0.1, 0.3, 1.0, 3.0, 10.0, 30.0 µM) and incubated for 72 h under cell-culture condition. After the incubation, 20 μL of 5 mg/mL MTT solution was added to each well and incubated for a further 4 h. The medium was removed, and the precipitated formazan crystals were dissolved in DMSO for 30 min under shaking at 37 °C. The absorbance was measured at 545 nm with a microplate reader. Untreated cells were included as controls. Calculations were performed by means of the GraphPad Prism 5.01 software (GraphPad Software Inc., San Diego, CA, USA). At least two independent determinations were performed with 5 parallel wells for each condition.

A2780 = assay: MTT antiproliferative assay, A2780; format: cell-based, human; settings: MTT, 72 h, ovarian cancer cells, read-out: IC50 Values (μM) ± SEM A2780
Procedure: as §1

[1] = tested on: human telomeric sequence F21T; assay: FRET-melting, F21T; format: binding; settings: ligand 2 μM, DNA 0.2 μM, 10 mM KCl, 90 mM LiCl, pH 7.2
Procedure: (§2) FRET-melting experiments were conducted on a Stratagene MX3005P (Thermo Fisher Scientific, Illkirch-Graffenstaden, France) real-time PCR equipment in 96-well plates on the DNA sequences reported in Table 4. Experiments were performed in 10 mM lithium cacodylate buffer (pH 7.2) and either 10 mM KCl and 90 mM LiCl (FK-RAST, FBCL-2T, F21T, and FdxT) or 1 mM KCl and 99 mM LiCl (Fc-MYCT) concentrations, depending on the Tm of the G4s alone. The DNA concentration was 0.2 µM. […] Data are presented as an average of three independent measurements, each conducted in duplicate conditions (λexc = 492 nm, λem = 516 nm, T interval = 25–95 °C, ramp: 25 °C for 5 min, then 1 °C/min, measurements every 1 °C, 8× magnification of the fluorescence signal).

MDA-MB-231 = assay: MTT antiproliferative assay, MDA-MB-231; format: cell-based, human; settings: MTT, 72 h, breast cancer cells, read-out: IC50 Values (μM) ± SEM MDA-MB-231
Procedure: as §1

SiHa = assay: MTT antiproliferative assay, SiHa; format: cell-based, human; settings: MTT, 72 h, cervical cancer cells, read-out: IC50 Values (μM) ± SEM SiHa
Procedure: as §1

FdxT = assay: FRET-melting, duplex control FdxT; format: binding; settings: ligand 2 μM, DNA 0.2 μM, 10 mM KCl, 90 mM LiCl, pH 7.2, hairpin duplex
Procedure: as §2

FBCL-2T = assay: FRET-melting, FBCL-2T; format: binding; settings: ligand 2 μM, DNA 0.2 μM, 10 mM KCl, 90 mM LiCl, pH 7.2
Procedure: as §2

HeLa = assay: MTT antiproliferative assay, HeLa; format: cell-based, human; settings: MTT, 72 h, cervical cancer cells, read-out: IC50 Values (μM) ± SEM HeLa
Procedure: as §1

Fc-MYCT = assay: FRET-melting, Fc-MYCT; format: binding; settings: ligand 2 μM, DNA 0.2 μM, K+ conditions, pH 7.2
Procedure: as §2

K562 = assay: MTS cell proliferation assay, K562; format: cell-based, human; settings: MTS, 3-day incubation, leukemia cells, read-out: IC50 Values (μM) ± SEM K562
Procedure: The human leukemic cell line K562 was grown in RPMI 1640 medium (Life Technology-Invitrogen by Thermo Fisher Scientific, Saint-Aubin, France) supplemented with 10% fetal calf serum (FCS), antibiotics (100 U/mL penicillin, 100 µg/mL streptomycin), and L-glutamine, (Eurobio, Les Ulis, France) at 37 °C, 5% CO2 in air. The MTS cell proliferation assay (Promega, Charbonnières-les-Bains, France) is a colorimetric assay system, which measures the transformation of a tetrazolium component (MTS) into formazan produced by the mitochondria of viable cells. Cells were washed twice in PBS (Phosphate Buffer Saline) and plated in quadruplicate into microtiter-plate wells in 100 μL culture media with or without our various compounds at increasing concentrations (0, 1, 5, 10, 20, and 50 μM) for 1, 2, and 3 days. After 3 h of incubation at 37 °C with 20 μL MTS/well, the plates were read using an ELISA microplate reader (Thermo, Electrocorporation, Waltham, MA, USA) at 490 nm. The amount of color produced was directly proportional to the number of viable cells. The results are expressed as the concentrations inhibiting cell growth by 50% after a 3-day incubation period. The 50% cytotoxic concentrations (CC50) were determined by linear regression analysis, expressed in μM ± SD (Microsoft Excel).

FK-RAST = assay: FRET-melting, FK-RAST; format: binding; settings: ligand 2 μM, DNA 0.2 μM, 10 mM KCl, 90 mM LiCl, pH 7.2
Procedure: as §2

| Compound | IC50 (MCF-7) [µM] | IC50 (A2780) [µM] | ΔT1/2 (°C) F21T [1] [°C] | IC50 (MDA-MB-231) [µM] | IC50 (SiHa) [µM] | ΔT1/2 (°C) FdxT (FdxT) [°C] | ΔT1/2 (°C) FBCL-2T (FBCL-2T) [°C] | IC50 (HeLa) [µM] | ΔT1/2 (°C) Fc-MYCT (Fc-MYCT) [°C] | IC50 (K562) [µM] | ΔT1/2 (°C) FK-RAST (FK-RAST) [°C] | IC50 (MCF-7; Homo sapiens, MCF7, 72 h) [µM] | IC50 (A2780; Homo sapiens, A2780) [µM] | IC50 (MDA-MB-231; Homo sapiens, MDA-MB-231, 72 h) [µM] | IC50 (SiHa; Homo sapiens, SiHa) [µM] | IC50 (HeLa; Homo sapiens, HeLa) [µM] | IC50 (K562; Homo sapiens, K562, 72 h) [µM] |
| --- | --- | --- | --- | --- | --- | --- | --- | --- | --- | --- | --- | --- | --- | --- | --- | --- | --- |
| CC1CN(CCCNCc2ccc(-c3nc(-c4ccc(CNCCCN5CCNC(C)C5)cc4)c4cccc(-c5ccccc5)c4n3)cc2)CCN1 (stereo not shown) [Compound 12m, 2,4-bis{4-[(4-(3-methylpiperazin-1-yl)propyl)aminomethyl]phenyl}-8-phenylquinazoline] | 1.22 ± 0.19 | 2.1 ± 0.48 | 23.3 ± 0.7 | 2 ± 0.45 | 0.88 ± 0.14 | 2.2 ± 0.2 | 15.5 ± 0.3 | 1.17 ± 0.23 | 14.6 ± 0.9 | 7 ± 0.2 | 18.2 ± 0.6 |  |  |  |  |  |  |
| CN(C)CCCCCNCc1ccc(-c2nc(-c3ccc(CNCCCCCN(C)C)cc3)c3ccc(-c4ccccc4)cc3n2)cc1 [Compound 12h, 2,4-bis{4-[(5-dimethylaminopentyl)aminomethyl]phenyl}-7-phenylquinazoline] |  |  | 28.1 ± 2.3 |  |  | 2.7 ± 1.0 | 18.2 ± 1.7 |  | 18.7 ± 0.2 |  | 28.6 ± 2.1 | 1.19 ± 0.27 | 1.43 ± 0.07 | 1.1 ± 0.38 | 0.75 ± 0.01 | 2.31 ± 0.76 | 13 ± 0.2 |
| CN(C)CCCCNCc1ccc(-c2nc(-c3ccc(CNCCCCN(C)C)cc3)c3cc(-c4ccccc4)ccc3n2)cc1 [Compound 12c, 2,4-bis{4-[(4-dimethylaminobutyl)aminomethyl]phenyl}-6-phenylquinazoline] |  |  | 28.0 ± 0.4 |  |  | 3.8 ± 0.8 | 16.4 ± 0.4 |  | 17.7 ± 0.8 |  | 24.5 ± 0.7 | 1.44 ± 0.03 | 2.04 ± 0.54 | 1.07 ± 0.42 | 0.76 ± 0.01 | 2.21 ± 0.86 | 7 ± 0.2 |
| CC1CN(CCCNCc2ccc(-c3cc(-c4ccc(CNCCCN5CCNC(C)C5)cc4)c4cc(-c5ccccc5)ccc4n3)cc2)CCN1 (stereo not shown) [Compound 13c, 2,4-bis{4-[(4-(3-methylpiperazin-1-yl)propyl)aminomethyl]phenyl}-6-phenylquinoline] | 0.86 ± 0.38 | 1.58 ± 0.1 | 11.3 ± 0.9 | 1.33 ± 0.13 | 1.45 ± 0.13 | 0.1 ± 0.2 | 7.5 ± 0.5 | 1.3 ± 0.06 | 6.8 ± 1.4 | 34 ± 0.7 | 14.5 ± 0.8 |  |  |  |  |  |  |
| CN1CCN(CCCCNCc2ccc(-c3nc(-c4ccc(CNCCCCN5CCN(C)CC5)cc4)c4cccc(-c5ccccc5)c4n3)cc2)CC1 [Compound 12n, 2,4-bis{4-[(4-(4-methylpiperazin-1-yl)butyl)aminomethyl]phenyl}-8-phenylquinazoline] |  |  | 20.7 ± 3.1 |  |  | 2.4 ± 0.7 | 12.0 ± 2.0 |  | 17.0 ± 2.0 |  | 18.0 ± 2.5 | 4.17 ± 0.5 | 7.1 ± 1.15 | 3.94 ± 0.54 | 1.89 ± 0.74 | 3.51 ± 0.17 | 14 ± 0.3 |
| 2,4-bis{4-[(4-(3-methylpiperazin-1-yl)propyl)aminomethyl]phenyl}-6-phenylquinazoline [Compound 12d] | 1.01 ± 0.3 | 1.74 ± 0.11 | 15.8 ± 1.2 | 1.44 ± 0.17 | 1.28 ± 0.27 | 0.5 ± 0.3 | 9.7 ± 0.06 | 1.32 ± 0.02 | 8.4 ± 0.9 | 17 ± 0.4 | 15.5 ± 0.5 |  |  |  |  |  |  |
| CN(C)CCCNCc1ccc(-c2nc(-c3ccc(CNCCCN(C)C)cc3)c3cccc(-c4ccccc4)c3n2)cc1 [Compound 12k, 2,4-bis{4-[(3-dimethylaminopropyl)aminomethyl]phenyl}-8-phenylquinazoline] | 1.24 ± 0.14 |  |  |  |  | 0.8 ± 0.1 | 9.5 ± 0.2 |  | 9.9 ± 1.4 |  | 13.0 ± 0.4 | 1.12 to 1.24 | 1.34 ± 0.14 | 1.36 ± 0.06 | 1.01 ± 0.27 | 1.19 ± 0.24 | 7 ± 0.1 |
| CN(C)CCCCNCc1ccc(-c2nc(-c3ccc(CNCCCCN(C)C)cc3)c3cccc(-c4ccccc4)c3n2)cc1 [Compound 12l, 2,4-bis{4-[(4-dimethylaminobutyl)aminomethyl]phenyl}-8-phenylquinazoline] |  |  | 24.9 ± 0.3 |  |  | 2.9 ± 0.2 | 17.2 ± 1.2 |  | 14.2 ± 1.1 |  | 18.7 ± 0.8 | 1.45 ± 0.02 | 2.08 ± 0.48 | 1.55 ± 0.12 | 1.14 ± 0.51 | 1.39 ± 0.16 | 7 ± 0.2 |
